Laboratory results as given in US20020035111A1, “Method of inhibiting neoplastic cells with tetracyclic pyrido[3,4-B] indole derivatives” (priority 1998, published 2002).

SMILES	melting point
COc1ccc([C@H]2c3[nH]c4ccc(F)cc4c3C[C@@H]3C(=O)N(CC(F)(F)F)CC(=O)N23)cc1 (relative stereo) [Example 5, Cis-2,3,6,7,12,12a-Hexahydro-10-Fluoro-6-(4-Methoxyphenyl)-2-(2,2,2-Trifluoroethyl)-Pyrazino(2′,1′:6,1)Pyrido(3,4-b)Indole-1,4-Dione]	190 °C
O=C1[C@H]2Cc3c([nH]c4ccccc34)[C@H](c3ccc4c(c3)OCO4)N2C(=O)CN1Cc1cccnc1 (relative stereo) [Example 11, Cis-2,3,6,7,12,12a-Hexahydro-2-(3-Pyridylmethyl)-6-(3,4-Methylenedioxyphenyl)-Pyrazino(2′,1′:6,1)Pyrido(3,4-b)Indole-1,4-Dione]	292 to 293 °C
O=C1[C@H]2Cc3c([nH]c4ccccc34)[C@H](c3ccc4c(c3)OCO4)N2C(=O)CN1CC(F)(F)F (relative stereo) [Example 14, Cis-2,3,6,7,12,12a-Hexahydro-2-(2,2,2-Trifluoroethyl)-6-(3,4-Methylenedioxyphenyl)-Pyrazino(2′,1′:6,1)Pyrido(3,4-b)Indole-1,4-Dione]	303 °C
CC(C)N1CC(=O)N2[C@@H](c3ccc4c(c3)OCO4)c3[nH]c4ccccc4c3C[C@@H]2C1=O (relative stereo) [Example 16, Cis-2,3,6,7,12,12a-Hexahydro-2-Isopropyl-6-(3,4-Methylenedioxyphenyl) Pyrazino(2′,1′:6,1)Pyrido(3,4-b)Indole-1,4-Dione]	248 to 250 °C
O=C1[C@H]2Cc3c([nH]c4ccccc34)[C@H](c3ccc4c(c3)OCO4)N2C(=O)CN1Cc1ccccc1 (relative stereo) [Example 23, Cis-2,3,6,7,12,12a-Hexahydro-2-Benzyl-6-(3,4-Methylenedioxyphenyl)Pyrazino(2′,1′:6,1)Pyrido(3,4-b)Indole-1,4-Dione]	285 to 287 °C
COc1ccc([C@H]2c3[nH]c4ccccc4c3C[C@@H]3C(=O)N(CC(F)(F)F)CC(=O)N23)cc1 (relative stereo) [Example 28, Cis-2,3,6,7,12,12a-Hexahydro-6-(4-Methoxyphenyl)-2-(2,2,2-Trifluoroethyl)Pyrazino(2′,1′:6,1)Pyrido(3,4-b)Indole-1,4-Dione]	232 °C
COc1ccc([C@H]2c3[nH]c4ccccc4c3C[C@@H]3C(=O)N(Cc4ccccc4)CC(=O)N23)cc1 (relative stereo) [Example 32, Cis-2,3,6,7,12,12a-Hexahydro-2-Benzyl-6-(4-Methoxyphenyl)Pyrazino(2′,1′:6,1)Pyrido(3,4-b)Indole-1,4-Dione]	275 to 279 °C
O=C1[C@H]2Cc3c([nH]c4ccccc34)[C@H](c3ccc4c(c3)CCO4)N2C(=O)CN1CC1CC1 (relative stereo) [Example 37, Cis-2,3,6,7,12,12a-Hexahydro-6-(2,3-Dihydrobenzo(b)Furan-5-yl)-2-Cyclopropylmethyl-Pyrazino(2′,1′:6,1)Pyrido(3,4-b)Indole-1,4-Dione]	165 to 166 °C
CCCCN1CC(=O)N2[C@@H](c3ccccc3Cl)c3[nH]c4ccccc4c3C[C@@H]2C1=O (relative stereo) [Example 40, Cis-2,3,6,7,12,12a-Hexahydro-2-Butyl-6-(2-Chlorophenyl) Pyrazino(2′,1′:6,1)Pyrido(3,4-b)Indole-1,4-Dione]	146 °C
CN1CC(=O)N2[C@@H](c3ccc4c(c3)CCCC4)c3[nH]c4ccccc4c3C[C@@H]2C1=O (relative stereo) [Example 47, Cis-2,3,6,7,12,12a-Hexahydro-2-Methyl-6-(1,2,3,4-Tetrahydro-6-Naphthyl)Pyrazino(2′,1′:6,1)Pyrido(3,4-b)Indole-1,4-Dione]	260 °C
CC(C)N1CC(=O)N2[C@@H](c3ccc4c(c3)CCCC4)c3[nH]c4ccccc4c3C[C@@H]2C1=O (relative stereo) [Example 48, Cis-2,3,6,7,12,12a-Hexahydro-2-Isopropyl-6-(1,2,3,4-Tetrahydro-6-Naphthyl)Pyrazino(2′,1′:6,1)Pyrido(3,4-b)Indole-1,4-Dione]	244 to 246 °C
CN1CC(=O)N2[C@@H](c3ccc(Br)s3)c3[nH]c4ccccc4c3C[C@@H]2C1=O (relative stereo) [Example 52, Cis-2,3,6,7,12,12a-Hexahydro-6-(5-Bromo-2-Thienyl)-2-Methylpyrazino(2′,1′:6,1)Pyrido(3,4-b)Indole-1,4-Dione]	258 °C
CN1CC(=O)N2[C@@H](c3cc(Br)cs3)c3[nH]c4ccccc4c3C[C@@H]2C1=O (relative stereo) [Example 53, Cis-2,3,6,7,12,12a-Hexahydro-6-(4-Bromo-2-Thienyl)-2-Methylpyrazino(2′,1′:6,1)Pyrido(3,4-b)Indole-1,4-Dione]	292 °C
Cc1ccc([C@H]2c3[nH]c4ccccc4c3C[C@@H]3C(=O)N(C)CC(=O)N23)s1 (relative stereo) [Example 56, Cis-2,3,6,7,12,12a-Hexahydro-2-Methyl-6-(5-Methyl-2-Thienyl)Pyrazino(2′,1′:6,1)Pyrido(3,4-b)Indole-1,4-Dione]	282 °C

More lines, now with the values ahead:

melting point	SMILES
236 to 239 °C	CCCCN1CC(=O)N2[C@@H](c3ccsc3)c3[nH]c4ccccc4c3C[C@@H]2C1=O (relative stereo) [Example 58, Cis-2,3,6,7,12,12a-Hexahydro-2-Butyl-6-(3-Thienyl)-Pyrazino(2′,1′:6,1)Pyrido(3,4-b)Indole-1,4-Dione]
250 °C	CN1CC(=O)N2[C@@H](c3ccoc3)c3[nH]c4ccccc4c3C[C@@H]2C1=O (relative stereo) [Example 59, Cis-2,3,6,7,12,12a-Hexahydro-2-Methyl-6-(3-Furyl)-Pyrazino(2′,1′:6,1)Pyrido(3,4-b)Indole-1,4-Dione]
303 °C	Cc1ccc([C@H]2c3[nH]c4ccccc4c3C[C@@H]3C(=O)N(C)CC(=O)N23)o1 (relative stereo) [Example 60, Cis-2,3,6,7,12,12a-Hexahydro-2-Methyl-6-(5-Methyl-2-Furyl)-Pyrazino(2′,1′:6,1)Pyrido(3,4-b)Indole-1,4-Dione]
194 °C	CCCCN1CC(=O)N2[C@@H](c3ccc(C)cc3)c3[nH]c4ccccc4c3C[C@@H]2C1=O (relative stereo) [Example 63, Cis-2,3,6,7,12,12a-Hexahydro-2-Butyl-6-(4-Methylphenyl)-Pyrazino(2′,1′:6,1)Pyrido(3,4-b)Indole-1,4-Dione]
244 °C	CC(C)c1ccc([C@H]2c3[nH]c4ccccc4c3C[C@@H]3C(=O)N(C)CC(=O)N23)cc1 (relative stereo) [Example 74, Cis-2,3,6,7,12,12a-Hexahydro-6-(4-Isopropylphenyl)-2-Methylpyrazino(2′,1′:6,1)Pyrido(3,4-b)Indole-1,4-Dione]
188 °C	CCCCN1CC(=O)N2[C@@H](c3ccc(NS(C)(=O)=O)cc3)c3[nH]c4ccccc4c3C[C@@H]2C1=O (relative stereo) [Example 100, Cis-2,3,6,7,12,12a-Hexahydro-2-Butyl-6-(4-Methylsulfonamidophenyl)-Pyrazino(2′,1′:6,1)Pyrido(3,4-b)Indole-1,4-Dione]
183 to 184 °C	CCCCN1CC(=O)N2[C@H](c3ccc(OC)cc3)c3[nH]c4ccccc4c3C[C@@H]2C1=O [Example 85, (6R,12aR)-2,3,6,7,12,12a-Hexahydro-2-Butyl-6-(4-Methoxyphenyl)-Pyrazino(2′,1′:6,1)Pyrido(3,4-b)Indole-1,4-Dione]
210 to 211 °C	COc1ccc([C@@H]2c3[nH]c4ccccc4c3C[C@@H]3C(=O)N(C4CCCC4)CC(=O)N23)cc1 [Example 86, (6R,12aR)-2,3,6,7,12,12a-Hexahydro-2-Cyclopentyl-6-(4-Methoxyphenyl)-Pyrazino(2′,1′:6,1)Pyrido(3,4-b)Indole-1,4-Dione]
176 °C	O=C1[C@H]2Cc3c([nH]c4ccccc34)[C@@H](c3ccc4c(c3)CCC4)N2C(=O)CN1CC1CC1 [Example 94, (6R,12aR)-2,3,6,7,12,12a-Hexahydro-6-(5-Indanyl)-2-Cyclopropylmethylpyrazino(2′,1′:6,1)Pyrido(3,4-b)Indole-1,4-Dione]
265 to 266 °C	COc1ccc(CCN2CC(=O)N3[C@H](c4ccc5c(c4)OCO5)c4[nH]c5ccccc5c4C[C@@H]3C2=O)cc1OC [Example 104, (6R,12aR)-2,3,6,7,12,12a-Hexahydro-2-(3,4-Dimethoxyphenethyl)-6-(3,4-Methylenedioxyphenyl)-Pyrazino(2′,1′:6,1)Pyrido(3,4-b)Indole-1,4-Dione]
219 °C	O=C1[C@H]2Cc3c([nH]c4ccccc34)[C@@H](c3ccc4c(c3)OCO4)N2C(=O)CN1Cc1ccco1 [Example 105, (6R,12aR)-2,3,6,7,12,12a-Hexahydro-2-Furfuryl-6-(3,4-Methylenedioxyphenyl)-Pyrazino(2′,1′:6,1)Pyrido(3,4-b)Indole-1,4-Dione]
240 °C	CN1CC(=O)N2[C@H](c3ccc4c(c3)CCN4)c3[nH]c4ccccc4c3C[C@@H]2C1=O [Example 111, (6R,12aR)-2,3,6,7,12,12a-Hexahydro-6-(5-Indolinyl)-2-Methyl-Pyrazino(2′,1′:6,1)Pyrido(3,4-b)Indole-1,4-Dione]
224 to 226 °C	CN1CC(=O)N2[C@H](c3ccc(O)c(O)c3)c3[nH]c4ccccc4c3C[C@@H]2C1=O [Example 118, (6R, 12aR)-2,3,6,7,12,12a-Hexahydro-6-(3,4-Dihydroxyphenyl)-2-Methylpyrazino(2′,1′:6,1)Pyrido(3,4-b)Indole-1,4-Dione]
291 to 293 °C	CN1CC(=O)N2[C@H](c3ccc4occc4c3)c3[nH]c4ccccc4c3C[C@@H]2C1=O [Example 120, (6R, 12aR)-2,3,6,7, 12, 12a-Hexahydro-6-(5-Benzofuranyl)-2-Methyl-Pyrazino[2′,1′:6,1]Pyrido[3,4-b]Indole-1,4-Dione]
291 to 292 °C	CC(C)N1CC(=O)N2[C@H](c3ccc4occc4c3)c3[nH]c4ccccc4c3C[C@@H]2C1=O [Example 122, (6R, 12aR)-2,3,6,7, 12, 12a-Hexahydro-6-(5-Benzofuranyl)-2-Isopropyl-Pyrazino [2′,1′:6,1]Pyrido [3,4-B]Indole-1,4-Dione]
